In patent US20150216975A1, “NANOVECTOR BASED DRUG DELIVERY SYSTEM FOR OVERCOMING DRUG RESISTANCE” (WILLIAM MARSH RICE UNIVERSITY, priority 2012, published 2015):

Legend:
[1] = system: glioblastoma cells grown in culture; assay: Living and dead GBM cell counts after Drug/PEG-HCC with or without Halo (FIG. 2B-2E); assay type: cell-based, human; conditions: for dead cell numbers when Halo is used in conjunction: 24 hours, drug/PEG-HCC with Halo (FIG. 2C)
Method: (§1) The drugs (Vin and Doc) were delivered to a final concentration of 100 nM in the form of GFAPAB/Drug/PEG-HCC. In some experiments, pump inhibitors Haloperidol (Halo) and Indomethacin (Indo) were added at a final concentration of 2 μM in the form of Il-13RAB/Inhibitor/PEG-HCC. Controls consisting of unloaded PEG-HCC, drug/inhibitor loaded PEG-HCC, GFAPAB, or saline were also used. Cells were treated for 24 hours with GFAPAB/Drug/PEG-HCC and/or Il-13RAB/Halo/PEG-HCC. Next, the cells were incubated for 1 hour with Rh123, BCECF-AM and Hoe, as previously described. Cells were then imaged at ×30 magnification using filters for Rh123, BCECF and Hoe.
Furthermore, it is shown in FIG. 2C that the dead cell numbers are elevated when Halo is used in conjunction with both Vin and Doc.
FIGS. 2D-2E show additional data relating to Halo-mediated potentiation of Vin, Doc and SN38 toxicity in HADES compositions.

GBM cells = assay: Potentiation of Vin or Doc toxicity in GBM cells by targeted vs untargeted Halo or Indo via IgG/PEG-HCC delivery, cell numbers (FIG. 3); assay type: cell-based, human; conditions: for increase of toxicity by pump inhibition by Halo (targeted vs untargeted, untargeted averaged to 100%) / increase of toxicity by pump inhibition by Indo (targeted vs untargeted, untargeted averaged to 100%): FIG. 3B; for cell number (% of control): 24 hours
Method: To confirm the potentiation effect of chemotherapeutic agents and pump inhibitors, Applicants performed a similar experiment to that shown in FIG. 2. In these experiments, Applicants examined the effects of both inhibitors on both chemotherapeutics. Applicants also inverted the targeting antibodies by utilizing GFAPAB/(Indo or Halo)/PEG-HCC and Il-13RAB/(Doc or Vin)/PEG-HCC. 2 μM Halo/PEG-HCC and Indo/PEG-HCC without antibody targeting were used as controls, which were added with and without 100 nM Vin or Doc as Il-13RAB/Drug/PEG-HCC.
200 nM Il-13RAB/Doc/PEG-HCC caused a drop in cell number to 75% and to 72% (the level seen in the controls) in the presence of (untargeted) Halo/PEG-HCC and Indo/PEG-HCC, respectively. However, targeting of Halo caused a large change in Doc toxicity. The inclusion of an antibody with Halo/PEG-HCC changed the toxicity from 75% to 37%. The inclusion of an antibody with Indo/PEG-HCC changed the Doc toxicity from 72% to 50%.
Vin toxicity was also potentiated in the presence of targeted xenobiotic pump inhibitors. Furthermore, the targeting of Halo dropped the cell numbers from 45% (control number, untargeted) to 27% (targeted). […] However, when Indo was targeted to the GBM cells, this dropped to only 14%. […] Only the potentiating effect is shown, comparing targeted and untargeted xenobiotic pump inhibitors, so that the cell numbers in the presence of untargeted pump inhibitor are averaged to 100%.

[2] = system: xenobiotic pumps in human primary GBM cells; assay: Retention of xenobiotic pump dye substrates (Rh123, BCECF, Hoe) in GBM cells (FIG. 1, 2A, 2F); assay type: cell-based; conditions: for dye retention, chemotherapeutic drug alone / dye accumulation in drug and inhibitor combinations / dye retention, pump inhibitor loaded on PEG-HCC targeted by IL-13R IgGs: GBM cells; for dye retention, chemotherapeutic drug alone / dye accumulation in drug and inhibitor combinations: 24 hours; for dye retention, chemotherapeutic drug alone: 100 nM as GFAPAB/Drug/PEG-HCC; for dye accumulation in drug and inhibitor combinations: 100 nM drug and 2 μM inhibitor on targeted PEG-HCC (FIG. 2A); for dye retention, pump inhibitor loaded on PEG-HCC targeted by IL-13R IgGs: Il-13RAB/Inhibitor/PEG-HCC (FIG. 2A, 2F); for retention of dyes (Rh123, BCECF, Hoe): human GBM cells, ninety minutes, 20 μM Fumitremorgin C, 200 μM Indomethacin
Source text: Applicants investigated the ability of human primary glioma cells to retain dyes in the absence and presence of known drug pump inhibitors. […] After ninety minutes, the cells were fixed using ice-cold 2% paraformaldehyde. The fixed cells were stored overnight in a refrigerator. The cells were then washed three times in phosphate buffered saline at pH 7.4 (PBS) and imaged in a fluorescence microscope.
In this experiment, PEG-HCCs were loaded with Halo, Sulfinpyrazone (Sulf) or Indo. The same methodologies outlined above were used. The constructs were then targeted to GBM cells by IL-13R IgGs.
as §1

[3] = system: HER2-neu+ cervical cancer cells; assay: Total cell protein of cervical cancer cells after antibody-guided PEG-HCC drugs and pump inhibitors (FIG. 4A); assay type: cell-based, human; conditions: 24 hours
Method: (§2) Applicants also investigated whether the potentiation of Vin and Doc toxicity (by Halo and Indo) was applicable to other cancer types. Applicants obtained human breast and cervical cancer cells from the ATCC and grew them in 96 well format.
(§3) In a pair of 96-well plates, confluent cancer cells were treated with 1 μM (Indo or Halo)/PEG-HCC and/or 1 μM (Doc or Vin)/PEG-HCC. The inhibitors were guided to the cell surface using anti-HER2 antibodies. The chemotherapeutics were guided using EGFR antibodies. After incubation for 24 hours, one plate was used to measure total cell protein, and the other was used in dye labeling studies (as described above). This was done for both HER2-neu+ breast and HER2-neu+ cervical cancer cells (where HER2-neu is human epidermal growth factor receptor-2).
100 nM Doc delivered using EGFR IgG yielded 78% of the control, whereas 100 nM Vin yielded 87% of the control. Halo increased the toxicity of Doc, lowering the total protein to 25% of the control. […] Indo increased the toxicity of Doc slightly (from 78% to 68%) and Vin greatly (from 87% to 36%). In the panels of FIG. 4C, the dye retention of these cervical cancer cells is shown under the same conditions. All four compounds cause a significant brightening of the cells.

[4] = system: HER2-neu+ breast cancer cells; assay: Total cell protein of breast cancer cells after antibody-guided PEG-HCC drugs and pump inhibitors (FIG. 4B); assay type: cell-based, human; conditions: 24 hours
Method: as §2, §3
100 nM Doc delivered using EGFR IgG yielded 51% of the control, whereas 100 nM Vin yielded 65% of the control. Halo increased the toxicity of Doc, thereby lowering the total protein to 30% of the control. […] In the panels of FIG. 4D, the dye retention of these breast cancer cells is shown under the same conditions. All four compounds cause a significant brightening of the cells. The inhibitor and chemotherapeutic combination panels also indicate that dye retention is potentiated in all four combinations/permutations.

GBM cells (BT111 cells) = assay: Toxicity of Doc/Vin and Halo/Indo delivered as peptidyl-PEG-HCC in GBM cells, living cell numbers (FIG. 12); assay type: cell-based, human; conditions: gliomal cells, 24 hours, 50 nM drug; for toxicity in the presence of both pump inhibitors (Halo and Indo): 1 μM Halo and Indo as peptidyl-PEG-HCC; for toxicity on co-incubation with Halo: 1 μM Halo as peptidyl-PEG-HCC (YRWYGYTPQNVI)
Method: (§4) In all cases, living cell numbers were calculated at n=6 individual wells and assayed using Hoe. Cells were incubated for 24 hours with Doc or Vin and targeted to the cell surface with peptidyl-PEG-HCC. The targeting peptidyl sequence was DFKLFAVTIKYR, which targets Intigrins αvβ3 and α5β. FIGS. 12B-12C provide data illustrating that drug pump inhibitors Halo and Indo potentiate the effects of Vin and Doc on GBM and breast cancer cells. Cells were incubated with PEG-HCC (control), 50 nM Doc or Vin, or Doc and Vin as peptidyl-PEG-HCC (using DFKLFAVTIKYR targeting Intigrins αvβ3 and α5β). Additionally, these four incubants were treated with PEG-HCC (control), 1 μM Halo or Indo, or Halo and Indo as peptidyl-PEG-HCC (using YRWYGYTPQNVI targeting EGFR).

[5] = system: human breast cancer cells; assay: Toxicity of Doc/Vin and Halo/Indo delivered as peptidyl-PEG-HCC in breast cancer cells (FIG. 12); assay type: cell-based; conditions: 50 nM drug; for potentiation of toxicity by Indo: 1 μM Indo as peptidyl-PEG-HCC
Method: as §4

[6] = 100 nM drug delivered using EGFR IgG, no pump inhibitor
[7] = drug via EGFR IgG plus Halo/PEG-HCC guided by anti-HER2
[8] = drug via EGFR IgG plus Indo/PEG-HCC guided by anti-HER2

| Structure (SMILES) | increase of toxicity by pump inhibition by Halo (targeted vs untargeted, untargeted averaged to 100%) (GBM cells) | increase of toxicity by pump inhibition by Indo (targeted vs untargeted, untargeted averaged to 100%) (GBM cells) [%] | dead cell numbers when Halo is used in conjunction [1] | dye retention, chemotherapeutic drug alone [2] | dye accumulation in drug and inhibitor combinations [2] | total cell protein (% of the control) [3, 6] [%] | total cell protein (% of the control) [3, 8] [%] | total cell protein (% of the control) [4, 6] [%] | total cell protein (% of the control) [4, 8] [%] | toxicity in the presence of both pump inhibitors (Halo and Indo) (GBM cells (BT111 cells)) | toxicity on co-incubation with Halo (GBM cells (BT111 cells)) | potentiation of toxicity by Indo [5] | dye retention, pump inhibitor loaded on PEG-HCC targeted by IL-13R IgGs [2] | retention of dyes (Rh123, BCECF, Hoe) [2] | also measured |
| --- | --- | --- | --- | --- | --- | --- | --- | --- | --- | --- | --- | --- | --- | --- | --- |
| CCc1c2c(nc3ccc(O)cc13)-c1cc3c(c(=O)n1C2)COC(=O)[C@]3(O)CC [SN-38] | – | – | – | – | – | – | – | – | – | – | – | – | – | – | effect of Halo on toxicity in HADES compositions ([1]; FIGS. 2D-2E): minimally affected |
| CC(=O)O[C@@]12CO[C@@H]1C[C@H](O)[C@@]1(C)C(=O)[C@H](O)C3=C(C)[C@@H](OC(=O)[C@H](O)[C@@H](NC(=O)OC(C)(C)C)c4ccccc4)C[C@@](O)([C@@H](OC(=O)c4ccccc4)[C@H]21)C3(C)C [Doc, docetaxel] | approximately 50% | 40 | elevated | differentially increase dye retention | synergistic effect in dye accumulation | 78 | 68 | 51 | 68 | greater level of toxicity than Halo or Indo alone | more enhanced by co-incubation with Halo | potentiated | – | – | total cell protein (% of the control) [3, 7]: 25%; total cell protein (% of the control) [4, 7]: 30%; toxicity with both pump inhibitors (Halo and Indo) ([5]; 1 μM Halo and Indo as peptidyl-PEG-HCC): greatly by both on combination; potentiation of toxicity by Halo ([5]; 1 μM Halo as peptidyl-PEG-HCC): potentiated |
| O=C(CCCN1CCC(O)(c2ccc(Cl)cc2)CC1)c1ccc(F)cc1 [Halo, Haloperidol] | – | – | – | – | – | – | – | – | – | – | – | – | same experimental results were obtained | – | – |
| COc1ccc2c(c1)c(CC(=O)O)c(C)n2C(=O)c1ccc(Cl)cc1 [Indo, Indomethacin] | – | – | – | – | – | – | – | – | – | – | – | – | same experimental results were obtained | increase dye retention of all dyes | – |
| COc1ccc2c3c([nH]c2c1)[C@H](C=C(C)C)N1C(=O)[C@@H]2CCCN2C(=O)[C@@H]1C3 [Fumitremorgin C] | – | – | – | – | – | – | – | – | – | – | – | – | – | increase dye retention of all dyes | – |
| CC[C@]1(O)C[C@@H]2CN(CCc3c([nH]c4ccccc34)[C@@](C(=O)OC)(c3cc4c(cc3OC)N(C)[C@H]3[C@@](O)(C(=O)OC)[C@H](OC(C)=O)[C@]5(CC)C=CCN6CC[C@]43[C@@H]65)C2)C1 [Vin, vinblastine] | approximately 50% | 70 | elevated | differentially increase dye retention | synergistic effect in dye accumulation | 87 | 36 | 65 | 33 | did not lead to a greater level of toxicity than Indo alone | moderately enhanced | potentiated | – | – | cell number (% of control) (GBM cells; drug as Il-13RAB/Drug/PEG-HCC with antibody-targeted Halo/PEG-HCC (GFAPAB)): 27%; cell number (% of control) (GBM cells; drug as Il-13RAB/Drug/PEG-HCC with antibody-targeted Indo/PEG-HCC (GFAPAB)): 14%; effect of Halo on toxicity (in words) [3]: slight effect; effect of Halo on toxicity (in words) [4]: no potentiating effect; toxicity in the presence of Indo (GBM cells (BT111 cells); 1 μM Indo as peptidyl-PEG-HCC (YRWYGYTPQNVI)): more than doubled |
